{
  "source": "patent US11345711B2",
  "about": "“8,9-dihydroimidazo[1,2-a]pyrimido[5,4-e]pyrimidin-5(6H)-ones” (IMPACT THERAPEUTICS (SHANGHAI), INC, priority 2016, dated 2022)",
  "key": {"NCI-H1299 cells": {"test_system": "NCI-H1299 cells", "experiment": "MTT based cell viability assay on NCI-H1299 cells", "conditions": "Homo sapiens, read-out: IC50, growth inhibition of NCI-H1299 cells", "in_short": "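NCI-H1299 cells (1000/well, settled overnight) were exposed for 3 d at 37 °C, 5% CO2, to an eight-point series of 10 μM to 0.01 μM plus DMSO blank, as prepared in DMSO (final DMSO 1‰). MTT (0.5 mg/mL, 4 h) was read at 552/630/690 nm. IC50 came from sigmoidal dose-response fits of survival.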"}, "LoVo cells": {"test_system": "LoVo cells", "experiment": "MTT based cell viability assay on LoVo cells", "conditions": "Homo sapiens, LoVo, 72 h, 3 d, read-out: IC50, growth inhibition of LoVo cells", "in_short": "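Inhibition of LoVo proliferation was derived as IC50 from a sigmoidal dose-response fit of cell survival. Readout was MTT (0.5 mg/mL, 4 h) with absorbance at 552/630/690 nm, after 3-day treatment at 37 °C. Eight-point series from 10 μM to 0.01 μM, DMSO control, 1% DMSO final.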"}, "Wee1 (h)": {"molecular_target": "Wee1 (h) (Homo sapiens, UniProt P30291)", "sequence (P30291 whole entry)": "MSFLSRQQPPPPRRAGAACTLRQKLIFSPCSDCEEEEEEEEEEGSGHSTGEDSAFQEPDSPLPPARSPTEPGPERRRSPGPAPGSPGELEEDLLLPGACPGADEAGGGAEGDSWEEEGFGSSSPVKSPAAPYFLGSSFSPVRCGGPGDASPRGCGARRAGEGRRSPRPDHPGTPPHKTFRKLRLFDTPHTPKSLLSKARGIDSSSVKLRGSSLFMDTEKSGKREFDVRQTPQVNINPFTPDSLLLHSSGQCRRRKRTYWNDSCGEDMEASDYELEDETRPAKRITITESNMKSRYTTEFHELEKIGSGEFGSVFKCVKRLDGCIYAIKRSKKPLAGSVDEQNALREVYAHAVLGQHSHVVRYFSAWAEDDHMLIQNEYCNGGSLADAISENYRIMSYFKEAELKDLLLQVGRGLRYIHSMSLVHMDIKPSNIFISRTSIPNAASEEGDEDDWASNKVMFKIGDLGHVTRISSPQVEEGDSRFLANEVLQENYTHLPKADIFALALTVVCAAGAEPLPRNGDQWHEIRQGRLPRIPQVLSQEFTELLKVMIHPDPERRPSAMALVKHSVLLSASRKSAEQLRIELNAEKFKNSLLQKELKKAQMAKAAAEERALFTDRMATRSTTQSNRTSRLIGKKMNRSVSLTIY", "experiment": "Wee1 kinase (h) detection method, [γ-33P]-ATP filter assay", "assay_type": "biochemical"}},
  "note": "Read-outs that look alike come from different tables or passages of the source.",
  "data": [
    {"smiles": "COc1cc(Nc2ncc3c(n2)N2CCN=C2N(c2c(F)cccc2Cl)C3=O)cc(F)c1N1CCN(C)CC1", "note": "[Example 124, 6-(2-Chloro-6-fluorophenyl)-2-((3-fluoro-5-methoxy-4-(4-methylpiperazin-1-yl)phenyl)amino)-8,9-dihydroimidazo[1,2-a]pyrimido[5,4-e]pyrimidin-5(6H)-one]", "values": [
      {"measurement": "IC50", "setting": "NCI-H1299 cells; NCI-H1299, NCI-H1299 cells", "result": 0.138, "unit": "µM"},
      {"measurement": "IC50", "setting": "LoVo cells", "result": 0.0497, "unit": "µM"},
      {"measurement": "Inh. (%) of Wee1 kinase enzyme activity", "setting": "Wee1 (h); C 0.01 μm compound", "result": 18, "unit": "%"},
      {"measurement": "Inh. (%) of Wee1 kinase enzyme activity", "setting": "Wee1 (h); C 0.1 μm compound", "result": 62, "unit": "%"},
      {"measurement": "Inh. (%) of Wee1 kinase enzyme activity", "setting": "Wee1 (h); C 1 μm compound", "result": 92, "unit": "%"}
    ]},
    {"smiles": "Cc1cc(Nc2ncc3c(n2)N2CCN=C2N(c2c(F)cccc2Cl)C3=O)cc(Cl)c1N1CCN(C)CC1", "note": "[Example 125, 6-(2-Chloro-6-fluorophenyl)-2-((3-chloro-5-methyl-4-(4-methylpiperazin-1-yl)phenyl)amino)-8,9-dihydroimidazo[1,2-a]pyrimido[5,4-e]pyrimidin-5(6H)-one]", "values": [
      {"measurement": "IC50", "setting": "NCI-H1299 cells; NCI-H1299, NCI-H1299 cells", "result": 0.0929, "unit": "µM"},
      {"measurement": "IC50", "setting": "LoVo cells", "result": 0.0264, "unit": "µM"},
      {"measurement": "Inh. (%) of Wee1 kinase enzyme activity", "setting": "Wee1 (h); C 0.01 μm compound", "result": 18, "unit": "%"},
      {"measurement": "Inh. (%) of Wee1 kinase enzyme activity", "setting": "Wee1 (h); C 0.1 μm compound", "result": 74, "unit": "%"},
      {"measurement": "Inh. (%) of Wee1 kinase enzyme activity", "setting": "Wee1 (h); C 1 μm compound", "result": 95, "unit": "%"}
    ]},
    {"smiles": "COc1cc(Nc2ncc3c(n2)N2CCN=C2N(c2c(F)cccc2Cl)C3=O)cc(Cl)c1N1CCN(C)CC1", "note": "[Example 126, 6-(2-Chloro-6-fluorophenyl)-2-((3-chloro-5-methoxy-4-(4-methylpiperazin-1-yl)phenyl)amino)-8,9-dihydroimidazo[1,2-a]pyrimido[5,4-e]pyrimidin-5(6H)-one]", "values": [
      {"measurement": "IC50", "setting": "NCI-H1299 cells; NCI-H1299, NCI-H1299 cells", "result": 0.067, "unit": "µM"},
      {"measurement": "IC50", "setting": "LoVo cells", "result": 0.0567, "unit": "µM"},
      {"measurement": "Inh. (%) of Wee1 kinase enzyme activity", "setting": "Wee1 (h); C 1 μm compound", "result": 89, "unit": "%"}
    ]},
    {"smiles": "COc1cc(Nc2ncc3c(n2)N2CCN=C2N(c2c(F)cccc2Cl)C3=O)cc(Br)c1N1CCN(C)CC1", "note": "[Example 127, 6-(2-Chloro-6-fluorophenyl)-2-((3-bromo-5-methoxy-4-(4-methylpiperazin-1-yl)phenyl)amino)-8,9-dihydroimidazo[1,2-a]pyrimido[5,4-e]pyrimidin-5(6H)-one]", "values": [
      {"measurement": "IC50", "setting": "NCI-H1299 cells; NCI-H1299 cells", "result": 0.0965, "unit": "µM"},
      {"measurement": "IC50", "setting": "LoVo cells", "result": 0.0423, "unit": "µM"},
      {"measurement": "Inh. (%) of Wee1 kinase enzyme activity", "setting": "Wee1 (h); C 1 μm compound", "result": 88, "unit": "%"}
    ]},
    {"smiles": "Cc1cc(Nc2ncc3c(n2)N2CCN=C2N(c2c(F)cccc2Cl)C3=O)cc(C(F)(F)F)c1N1CCN(C)CC1", "note": "[Example 128, 6-(2-Chloro-6-fluorophenyl)-2-((3-methyl-4-(4-methylpiperazin-1-yl)-5-(trifluoromethyl)phenyl)amino)-8,9-dihydroimidazo[1,2-a]pyrimido[5,4-e]pyrimidin-5(6H)-one]", "values": [
      {"measurement": "IC50", "setting": "NCI-H1299 cells; NCI-H1299, NCI-H1299 cells", "result": 0.306, "unit": "µM"},
      {"measurement": "IC50", "setting": "LoVo cells", "result": 0.0688, "unit": "µM"},
      {"measurement": "Inh. (%) of Wee1 kinase enzyme activity", "setting": "Wee1 (h); C 0.01 μm compound", "result": 8, "unit": "%"},
      {"measurement": "Inh. (%) of Wee1 kinase enzyme activity", "setting": "Wee1 (h); C 0.1 μm compound", "result": 61, "unit": "%"},
      {"measurement": "Inh. (%) of Wee1 kinase enzyme activity", "setting": "Wee1 (h); C 1 μm compound", "result": 89, "unit": "%"}
    ]},
    {"smiles": "COc1cc(Nc2ncc3c(n2)N2CCN=C2N(c2c(F)cccc2Cl)C3=O)cc(C)c1N1CCN(C)CC1", "note": "[Example 129, 6-(2-Chloro-6-fluorophenyl)-2-((3-methoxy-5-methyl-4-(4-methylpiperazin-1-yl)phenyl)amino)-8,9-dihydroimidazo[1,2-a]pyrimido[5,4-e]pyrimidin-5(6H)-one]", "values": [
      {"measurement": "IC50", "setting": "NCI-H1299 cells; NCI-H1299, NCI-H1299 cells", "result": 0.0782, "unit": "µM"},
      {"measurement": "IC50", "setting": "LoVo cells", "result": 0.0703, "unit": "µM"},
      {"measurement": "Inh. (%) of Wee1 kinase enzyme activity", "setting": "Wee1 (h); C 0.01 μm compound", "result": 26, "unit": "%"},
      {"measurement": "Inh. (%) of Wee1 kinase enzyme activity", "setting": "Wee1 (h); C 0.1 μm compound", "result": 73, "unit": "%"},
      {"measurement": "Inh. (%) of Wee1 kinase enzyme activity", "setting": "Wee1 (h); C 1 μm compound", "result": 93, "unit": "%"}
    ]},
    {"smiles": "CN1CCc2c(Cl)cc(Nc3ncc4c(n3)N3CCN=C3N(c3c(Cl)cccc3Cl)C4=O)cc2C1", "note": "[Example 130, 6-(2,6-Dichlorophenyl)-2-((5-chloro-2-methyl-1,2,3,4-tetrahydroisoquinolin-7-yl)amino)-8,9-dihydroimidazo[1,2-a]pyrimido[5,4-e]pyrimidin-5(6H)-one]", "values": [
      {"measurement": "IC50", "setting": "NCI-H1299 cells; NCI-H1299 cells", "result": 0.243, "unit": "µM"},
      {"measurement": "IC50", "setting": "LoVo cells", "result": 0.624, "unit": "µM"},
      {"measurement": "Inh. (%) of Wee1 kinase enzyme activity", "setting": "Wee1 (h); C 1 μm compound", "result": 93, "unit": "%"}
    ]}
  ]
}
